Laboratory results as given in ChEMBL document CHEMBL5046270, “A Selective and Orally Bioavailable Quinoline-6-Carbonitrile-Based Inhibitor of CDK8/19 Mediator Kinase with Tumor-Enriched Pharmacokinetics” (J Med Chem, 2022).

Experiments:
[1] = Elimination rate constant in plasma of BALB/c mouse xenografted with mouse CT26 cells at 2.5 mg/kg, iv by LC-MS/MS analysis; type: ADME, organism-based
[2] = Half life in tumor of BALB/c mouse xenografted with mouse CT26 cells at 100 mg/kg, po by LC-MS/MS analysis; type: ADME, organism-based, Neoplasm
[3] = AUC (0-24hrs) in tumor of BALB/c mouse xenografted with mouse CT26 cells at 2.5 mg/kg, iv by LC-MS/MS analysis; type: ADME, organism-based, Neoplasm; set-up: time < 24 hr, route intravenous, dose 2.5 mg/kg
[4] = system: CT26; assay: Downregulation of KLF2 gene expression in BALB/c mouse xenografted with mouse CT26 cells at 100 mg/kg, po 2 to 12 hrs […]; type: functional, organism-based; settings: time 2-12 hrs, TDE = time-dependent effect
[5] = Half life in plasma of BALB/c mouse xenografted with mouse CT26 cells at 2.5 mg/kg, iv by LC-MS/MS analysis; type: ADME, organism-based
[6] = target: CDK8/Cyclin C (Homo sapiens, UniProt P49336); assay: Binding affinity to kinase tracer 236 binding to His tagged recombinant human CDK8/cyclinC assessed as dissociation constant by TR FRET based assay; type: protein-complex assay
Sequence of CDK8/Cyclin C (P49336 whole entry): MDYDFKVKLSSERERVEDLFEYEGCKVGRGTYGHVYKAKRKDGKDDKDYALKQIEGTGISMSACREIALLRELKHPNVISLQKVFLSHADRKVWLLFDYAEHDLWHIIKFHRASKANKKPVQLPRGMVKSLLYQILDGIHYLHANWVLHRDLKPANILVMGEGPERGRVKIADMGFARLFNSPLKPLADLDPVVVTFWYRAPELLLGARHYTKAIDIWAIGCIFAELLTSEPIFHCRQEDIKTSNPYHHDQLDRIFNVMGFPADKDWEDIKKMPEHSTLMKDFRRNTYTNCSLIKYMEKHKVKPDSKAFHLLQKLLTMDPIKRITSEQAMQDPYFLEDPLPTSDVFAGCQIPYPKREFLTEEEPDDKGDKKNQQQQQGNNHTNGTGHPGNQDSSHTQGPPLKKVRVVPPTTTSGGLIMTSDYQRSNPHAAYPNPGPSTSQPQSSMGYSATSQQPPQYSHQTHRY
Sequence of CDK8/Cyclin C (P24863 whole entry, further chain): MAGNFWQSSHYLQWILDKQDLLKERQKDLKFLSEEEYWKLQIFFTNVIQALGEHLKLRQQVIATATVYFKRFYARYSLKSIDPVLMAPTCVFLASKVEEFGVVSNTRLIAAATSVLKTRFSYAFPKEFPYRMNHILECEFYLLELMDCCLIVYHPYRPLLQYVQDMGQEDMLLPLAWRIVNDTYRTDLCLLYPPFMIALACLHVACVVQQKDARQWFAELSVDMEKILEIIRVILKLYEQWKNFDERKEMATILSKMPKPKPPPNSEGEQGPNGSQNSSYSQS

[7] = AUC (0-24hrs) in plasma of BALB/c mouse xenografted with mouse CT26 cells at 2.5 mg/kg, iv by LC-MS/MS analysis; type: ADME, organism-based; set-up: time < 24 hr, route intravenous, dose 2.5 mg/kg; settings: in vivo
[8] = Half life in tumor of BALB/c mouse xenografted with mouse CT26 cells at 2.5 mg/kg, iv by LC-MS/MS analysis; type: ADME, organism-based, Neoplasm
[9] = Elimination rate constant in plasma of BALB/c mouse xenografted with mouse CT26 cells at 100 mg/kg, po by LC-MS/MS analysis; type: ADME, organism-based
[10] = target: CDK8/Cyclin C (Homo sapiens) (UniProt P49336+P24863); assay: Binding affinity to kinase tracer 236 binding to His tagged recombinant human CDK8/cyclinC assessed as rate constant (kon) by TR FRET based assay; type: protein-complex assay
[11] = Metabolic stability in human hepatocyte assessed as intrinsic clearance at 2 uM measured per 10^6 by LC-MS/MS analysis; type: ADME, cell-based; settings: hepatocytes

k el [1]: 0.000258 s⁻¹
half-life [2]: 7.27 h
AUC(0-t) at 24 h [3]: 6410 ng·h/mL
half-life [5]: 0.75 h
Kd [6]: 1.39 nM
AUC [7]: 331 ng·h/mL
half-life [8]: 12.1 h
k el [9]: 5.56e-05 s⁻¹
K [10]: 8.78 10^6/M/s
CLH [11]: 0.00639 mL/min
SMILES: CN1CCN(C(=O)c2ccc3cc(CCNc4ccnc5ccc(C#N)cc45)ccc3c2)CC1
Activity [4]: Tde
